Reference: patent publication US20040132666A1, “Administration of free radical scavengers to prevent or treat ischemia-reperfusion injuries” (Oregon Health & Science University, priority 2002, published 2004)

Experiments:
[1] = system: middle cerebral artery occlusion; test: Temporary (60 min) middle cerebral artery occlusion and 24 h reperfusion, total infarction volume by TTC staining (Example 2); type: in vivo, rat; conditions: for infarction volume: 60 min occlusion, 24 h reperfusion, mean ± SD
brain glutathione levels = conditions: 10 g/m^2 intraperitoneally twice daily for 3 days; cited from earlier work
[2] = system: middle cerebral artery occlusion (MCAO); test: 60 minute transient MCAO in rats, infarcted area on TTC stained brain slices (Example 1); type: in vivo, rat
Experimental: Twenty female Long Evans rats underwent 60 minute transient MCAO. The rats were anesthetized, intubated and mechanically ventilated using 2% Isoflurane, available from Abbott Laboratories, North Chicago, Ill., and oxygen mixture. The left common carotid artery (CCA) and the bifurcation were exposed via midline incision. The branches of the left external carotid artery (ECA) were coagulated, and the ECA stump was mobilized inferiorly, the left pterygopalatine artery was ligated. A blunt tipped 3 cm long segment of a 3-0 monofilament nylon suture, available from Dermalone, United States Surgical, Norwalk, Conn., was introduced into the left internal carotid artery via the left ECA stump, and advanced 2.0-2.2 cm distance from the bifurcation. Then the proximal CCA was ligated temporarily. After the defined occlusion time the animal was re-anesthetized using a mask. The ligation of the CCA was released, and the suture was pulled back and removed allowing reperfusion of the occluded segment. […] The animals were sacrificed 24 h later with intracardiac injection of Pentobarbital. […] The pictures were analyzed using the Scion Image for Windows software (based on NIH Image Software for Macintosh). The non-stained area was outlined, and the area was calculated, as a percentage of the stroked hemisphere. Data were analyzed and graphed using Microsoft Excel Software. […]

[3] = rat, in vivo, iv, 1000 mg/kg
[4] = Serum NAC concentration in rats 5 min post infusion
[5] = system: ischemia-reperfusion injuries; test: Single high dose versus multiple low doses of NAC against ischemia-reperfusion injuries; conditions: single high dose (400-1000 mg/kg) versus multiple low doses

Compound	infarction volume in comparison to other groups ([1]; 3 days of BSO pretreatment)	reduction of brain glutathione levels (brain glutathione levels)	infarction versus control group ([2]; 400 mg/kg i.v. 30 min before occlusion, slices 10 and 12 mm from frontal pole, significant only in last slice)	infarcted area smaller than in control group (mean) ([2]; 400 mg/kg i.v. over 15 min starting 30 min before occlusion, slices 6 and 8 mm from frontal pole, 24 h after 60 min MCAO)	hematocrit after infusion (from 50%) ([1]; 2500 μl volume intravenous injection in 5 minutes, same for saline)	infarction volume ([1]; Series A: 400 mg/kg i.v. -60 min to MCAO)	average reduction of total calculated infarction volume versus saline treated group ([1]; Series A: NAC 60 minutes before occlusion)	infarction volume ([1]; Series B: 400 mg/kg i.v. -30 min to MCAO)	average protection versus saline ([1]; Series B: NAC 30 minutes before occlusion)	infarction volume ([1]; Series C: 400 mg/kg i.v. at reperfusion (2 min after))	total volume of infarction versus saline treated group ([1]; Series C: NAC after reperfusion, p=0.84)	protection in comparison to saline controls ([1]; Series D: BSO treated, glutathione depleted animals, p=0.72)	toxicity [3]	transient decrease of mean arterial blood pressure (Long-Evans, rat, in vivo, iv)	morbidity or mortality (stroke animals, intravenous 400 mg NAC in 5 min infusion)	serum NAC concentration ([4]; 400 mg/kg)	serum NAC concentration ([4]; 1000 mg/kg)	serum NAC concentration ([4]; about 140 mg/kg)	effectiveness in preventing or treating ischemia-reperfusion injuries [5]
CCCCS(=N)(=O)CCC(N)C(=O)O [BSO, L-buthionine-[S,R]-sulfoxamine]	did not result in higher infarction volume	at least 50%	–	–	–	–	–	–	–	–	–	–	–	–	–	–	–	–	–
CC(=O)N[C@@H](CS)C(=O)O [NAC, N-acetylcysteine]	–	–	the infarction was smaller	38%	30%	143.40 ± 72 mm3	43%	176.60 ± 69 mm3	34%	156.41 ± 27 mm3	the difference was not significant	failed to provide significant protection	No toxicity was observed	10%	did not cause significant morbidity or mortality	about 1.5 mM	~10 mM	0.1 to 0.3 mM	more effective
